From article doi:10.1101/2025.07.11.664310v1 (biorxiv, 2025)

Columns and labels:
hOGG1 = hOGG1 (Homo sapiens, UniProt O15527); assay: Cas12a-coupled fluorescence assay, 8-oxoG DNA hairpin transducer; assay type: biochemical
Fpg = target: T1, Fpg (Escherichia coli, UniProt P05523); assay: as above; assay type: biochemical
T1 sequence (P05523 2-269): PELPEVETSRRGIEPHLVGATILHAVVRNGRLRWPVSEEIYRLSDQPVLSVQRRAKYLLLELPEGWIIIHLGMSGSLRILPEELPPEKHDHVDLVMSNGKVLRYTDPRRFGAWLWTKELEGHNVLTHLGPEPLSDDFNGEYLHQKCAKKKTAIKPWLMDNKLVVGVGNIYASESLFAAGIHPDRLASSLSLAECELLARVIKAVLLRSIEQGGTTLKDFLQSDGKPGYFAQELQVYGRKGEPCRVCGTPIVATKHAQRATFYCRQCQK

Sequence of hOGG1 (O15527 whole entry): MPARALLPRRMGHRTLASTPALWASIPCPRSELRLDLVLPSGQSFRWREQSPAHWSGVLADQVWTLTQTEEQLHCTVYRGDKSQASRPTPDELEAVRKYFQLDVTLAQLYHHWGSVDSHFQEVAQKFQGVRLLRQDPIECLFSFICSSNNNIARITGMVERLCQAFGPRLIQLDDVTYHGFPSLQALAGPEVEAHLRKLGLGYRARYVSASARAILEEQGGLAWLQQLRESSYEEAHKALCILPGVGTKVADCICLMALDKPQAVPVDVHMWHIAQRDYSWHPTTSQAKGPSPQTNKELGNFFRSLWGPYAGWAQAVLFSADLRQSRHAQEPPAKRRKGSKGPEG

| IC50 (hOGG1) | IC50 (Fpg) | SMILES |
| --- | --- | --- |
| 11.9 ± 0.4 µM | 70.3 ± 0.7 µM | O=c1[nH]c2[nH]c(=S)[nH]c(=O)c2[nH]1 [Inh#4, Mercapto-6,8-purinediol] |
| 2.5 ± 0.5 µM | – | NNC(=O)c1sc2cccc(Cl)c2c1Cl [Inh#1, O8] |
